Where two headings read alike, the source gives them in different places.
Key:
[1] = test system: SK-MEL-24 cells; assay: MTT cytotoxicity assay, SK-MEL-24; assay type: cell-based; details: Homo sapiens
Text: (§1) We studied the growth-inhibitory effects of 2HF on the B16-F0 and B16-F10 murine melanoma cell lines as well as on the SK-MEL-24 human melanoma cell line. B16-F10 and SK-MEL-24 have been shown in previous studies to be highly resistant to treatment and much more invasive than B16-F0 [32]. […] The absorption value measured upon reduction of the MTT dye by functional mitochondria is an indirect measure of cell number that cannot distinguish inhibited cell proliferation from apoptotic or necrotic cell death. By counting viable (trypan-blue dye-excluding) cells using a hemacytometer, we verified that 2HF did indeed cause cell death.
(§2) Figure 1 Mouse and human melanoma cell survival following 2′-hydroxyflavanone (2HF) treatment.
(§3) The IC50 of 2HF on B16-F0, B16-F10, and SK-MEL-24 cells was determined by MTT cytotoxicity assay. Cells were harvested and Trypan Blue dye exclusion test was used to determine the number of viable cells present in a cell suspension using a hemocytometer. The cell suspension was diluted to 5 × 10^4 cells/mL with Dulbecco’s Modified Eagle’s Medium (DMEM) complete medium and 5000 cells/well were plated in 96-well plates. After 24 h incubation at 37 °C, cells were treated with 2HF concentrations ranging from 0–200 µM (8 replicates per plate). After 48 or 72 h incubation, 40 µL of MTT (5 mg/mL) solution was added. After 4 h incubation, the plate was centrifuged at 700× g for 5 min and medium was aspirated completely. Then, 50 µL DMSO was added to each well to dissolve the purple precipitate on the rocking platform for about 15 min. The absorbance was then measured at 490 nm using a 96-well microplate reader (Spectramax Plus, Molecular Devices, Inc, San Jose, CA, USA).

[2] = LC-MS/MS analysis of 2HF in serum after topical application; assay type: in vivo, C57BL/6 mice; details: topical 12 mg 2HF/0.1 mL PLO gel each day for 8 weeks, blood within 2 h after final dosage
Description: C57BL/6 mice were administered either 0.1 mL PLO gel or 12 mg 2HF in 0.1 mL PLO gel topically each day for 8 weeks. On the last day, the blood was collected within 2 h after final dosage, and subjected to LC-MS/MS analyses according to established protocol. Briefly, serum from control and 2HF-treated mice was extracted twice with 500 µL ethyl acetate and the organic layers were collected and evaporated to dryness in a speed-vac. The residue was reconstituted in 40 µL methanol containing 0.1% formic acid (FA) for analysis. An LC-MS method was developed for the quantitative analysis of 2HF using an Agilent 6490 triple quadrupole coupled with an Agilent 1290 UHPLC system. In short, the binary pump delivered buffers A (0.1% FA in water) and buffer B (0.1% FA in acetonitrile) over 10 min with the following gradient: From 10% B to 20% B in 1 min, then ramp to 90% B at 6 min, 10% B at 8 min, 10% B at 8.5 min, column equilibration post analysis was 2 min. An Agilent Zorbax, 0.5 × 150 mm, 5 µm particle size was used for the separation at a flow rate of 50 µL/min.

[3] = test system: B16-F0 cells; assay: MTT cytotoxicity assay, B16-F0; assay type: cell-based; details: Mus musculus, B16F0
Text: as §1, §2, §3

[4] = Single dose pharmacokinetic study of 2HF; assay type: in vivo, Sprague Dawley male rats; details: male SD rats
Description: Figure 7 Plasma concentration vs. time profile of 2HF in rats. Mean plasma concentration vs. time profile of 2HF following intravenous and oral administration of 2HF at 5 mg/kg and 10 mg/kg, respectively, to male SD rats (n = 3).
Pharmacokinetic studies of 2HF were performed by GVK Biosciences Pvt. Ltd., Hyderabad, India in Sprague Dawley male rats (~280 g). Rats were dosed either orally through gastric gavage needle of 10 mg/kg 2HF (0.5% Methyl cellulose + 0.5% Tween80) or intravenous 5 mg/kg 2HF (in 10% DMSO). Then, 200–300 µL blood was collected at each time point and plasma was separated; 50 µL plasma sample was deproteinized with 200 µL of acetonitrile followed by centrifugation at 2000× g for 5 min and supernatant was analyzed for 2HF by LC-MS/MS. Pharmacokinetic parameters were calculated for individual animals by a non-compartmental model with Phoenix software version 8.1 (CERTARA, Princeton, NJ, USA).

[5] = test system: B16-F10 cells; assay: MTT cytotoxicity assay, B16-F10; assay type: cell-based; details: Mus musculus
Text: as §1, §2, §3

[6] = test system: B16-F10 cells; assay: EGF-pHrodo endocytosis, B16-F10 (microscopy); assay type: cell-based, mouse; details: Rlip-antisense, Rlip-shRNA, or 10 µM 2HF for 24 h
Description: Figure 3 Effects of Rlip depletion on epidermal growth factor (EGF) endocytosis of mouse melanoma cells. Representative photomicrographs of Rlip-depleted B16-F0 and B16-F10 cells showing the inhibition of EGF-pHrodo endocytosis. […] Rlip was depleted by treating cells with Rlip-antisense, Rlip-shRNA, or 10 µM 2HF for 24 h as described in Materials and Methods section 4.8. Photographs were taken at identical exposures using 200× magnification.
The effect of Rlip knockdown/depletion by shRNA, RLIP76-antisense (R508), or 2HF on endocytosis was studied in B16 melanoma cell lines. The cells were transfected with Rlip shRNA or R508 antisense and their scrambled shRNA and scrambled antisense (CAS) controls as previously described. Briefly, B16 cells were grown in DMEM medium containing 10% FBS on Nunc 4 chamber slides overnight to 70–80% confluence. For RLIP76 knockdown, pSUPER retro puro shRLIP plasmid DNA (8 µg/mL) and RLIP76-antisense (R508; 10 μg/mL final conc.) and their respective controls (scrambled shRNA and CAS) were pre-complexed with Lipofectamine 2000 reagent in Opti-MEM® reduced serum medium for transfection of the cells. Other sets of slides were treated with vehicle (Methanol) or 10 µM 2HF to inhibit Rlip expression. […] Slides were analyzed using a fluorescence microscope (Olympus America, Melville, NY, USA). […]

[7] = MTT, 72 h, mean ±SD, n = 5, read-out: IC50 at 72 h (growth/survival)
[8] = Table 1, agent alone, read-out: IC50

Work on `O=C1CC(c2ccccc2O)Oc2ccccc21` (centres unmarked) [2HF, 2′-hydroxyflavanone] yielded an IC50 [1, 7] of 44 ± 6 µM, an IC50 [1, 8] of 44.9 ± 1.67 µM and a 2HF in serum [2] of 4.3 ± 0.4 µM. For the same compound, the IC50 [3, 7] was 38 ± 4 µM, the IC50 [3, 8] was 38.6 ± 1.61 µM and the oral bioavailability ([4]; 10 mg/kg oral vs 5 mg/kg IV) was “Poor”. For the same compound, the “plasma concentrations orally compared with IV” value ([4]; 10 mg/kg oral vs 5 mg/kg IV) was “two log-order lower”, the clearance ([4]; after either oral or IV administration) was “rapid clearance” and the IC50 [5, 7] was 47 ± 6 µM. For the same compound, the IC50 [5, 8] was 42 ± 1.83 µM and the “EGF-pHrodo endocytosis (fluorescence microscopy)” value [6] was “completely blocked”.

From PMC6826616, “Topical 2′-Hydroxyflavanone for Cutaneous Melanoma” (Cancers, 2019)
